Experiments:
[1] = serum estrogen levels and half life with estradiol transdermal patch in postmenopausal women (Ginsburg et al.); type: in vivo; settings: female, human, other: transdermal patch, 0.1 mg, after removal of patch, worked out from mean half life, read-out: terminal half life (converted)
Excerpt: Exogenous estrogen can be used to inhibit osteoclast activity and bone resorption by the “triple whammy” previously disclosed, inhibiting osteoclast activity by binding to osteoblasts and 1) increasing their output of OPG and 2) suppressing their RANKL production and 3) prolonging the lives of osteoblasts while simultaneously promoting osteoclast apoptosis. […] The dose is low enough and for a short enough period of time that it should not materially interfere with any of the menstrual processes. Alternatively, the patch may also be cut in half to obtain a half dose (0.05 ng/ml) cushion factor. Estrogen is available in oral, injectable, and patch forms from numerous suppliers and include Estrace, Cenestin, Enjuvia, Femtrace, Gynodiol, Menest etc. . . .
SERM/Estradiol: If the patient is on birth control, which is basically 3 weeks of estrogen followed by 1 week of sugar pills, the SERM raloxifene could be substituted for the sugar pills. Alternatively, low levels of estrogen could be substituted for one or more of the sugar pills, with the goal of keeping the serum levels around 0.1 ng/ml, without the sharp transition drop, and without the potential for interfering with progression of menstruation. Alternatively, an estrogen patch may be used. […]

serum calcium [2] = settings: 7.5 mg/kg, 2 h infusion x3 days; cited from earlier work
patients with PMS = settings: double blind study; cited from earlier work
blood calcium levels = settings: more potent than human calcitonin; cited from earlier work
[3] = testosterone levels with Androderm transdermal patch; settings: human, in vivo, other: transdermal patch
Excerpt: When androgens such as testosterone bind to osteoblast receptors, the osteoblast is stimulated to form new bone (i.e. move calcium into bone). […] Accordingly, administration of androgens such as testosterone, or administration of endocrine hormones that upregulate indigenous production of androgens (e.g. in males, luteinizing hormone, gonadotropin/luteinizing hormone releasing hormone), can be used to reduce extracellular calcium levels by moving calcium back into bone. Testosterone USP is natural testosterone that has been approved by the United States Pharmacopoeia and is available as a bulk chemical. Testosterone is well-absorbed from transdermal (topical) creams and gels. Dosage forms also include sublingual drops, buccal or sublingual troches or tablet triturates. […] In the form known as Testosterone Cypionate, testosterone can be administered by intramuscular injection every 1-3 weeks. WatsonPharma's Androderm transdermal 2.5 mg or 5 mg testosterone patch provides a more convenient way to administer testosterone, and provides the ability to administer the testosterone over a desired time frame much more precisely (as will be discussed further in representative examples). Androderm patches can ramp up testosterone levels quickly (e.g. 349 ng/dl within 3 hours, 528 ng/dl within 6 hours, when applied to the back) and can be used for up to 24 hours. […]

serum calcium [4] = settings: injections of 4-8 IU/kg (IM or SubQ), most patients; cited from earlier work
[5] = system: tryptophan hydroxylase (TPH); settings: estrogen treated monkey; cited from earlier work

With `C[C@]12CC[C@@H]3c4ccc(O)cc4CC[C@H]3[C@@H]1CC[C@@H]2O` [estradiol] as the compound, how does the half-life [1] read?
The half-life was ~9 h.

For `CC(O)(P(=O)(O)O)P(=O)(O)O` [etidronate disodium], which duration of efficacy (serum calcium [2]) is on record?
Its duration of efficacy is “more than a week”.

For `N[C@@H](Cc1cc(I)c(Oc2cc(I)c(O)c(I)c2)c(I)c1)C(=O)O` [levothyroxine], which “benefit over the placebo” value (patients with PMS) is on record?
Its value is “did not show any benefit over the placebo”.

For `CC(C)C[C@H](NC(=O)[C@H](CCCCN)NC(=O)CNC(=O)[C@H](CC(C)C)NC(=O)[C@@H](NC(=O)[C@@H]1CSSC[C@H](N)C(=O)N[C@@H](CO)C(=O)N[C@@H](CC(N)=O)C(=O)N[C@@H](CC(C)C)C(=O)N[C@@H](CO)C(=O)N[C@@H]([C@@H](C)O)C(=O)N1)C(C)C)C(=O)N[C@@H](CO)C(=O)N[C@@H](CCC(N)=O)C(=O)N[C@@H](CCC(=O)O)C(=O)N[C@@H](CC(C)C)C(=O)N[C@@H](Cc1c[nH]cn1)C(=O)N[C@@H](CCCCN)C(=O)N[C@@H](CC(C)C)C(=O)N[C@@H](CCC(N)=O)C(=O)N[C@H](C(=O)N[C@@H](Cc1ccc(O)cc1)C(=O)N1CCC[C@H]1C(=O)N[C@@H](CCCNC(=N)N)C(=O)N[C@H](C(=O)N[C@@H](CC(N)=O)C(=O)N[C@H](C(=O)NCC(=O)N[C@@H](CO)C(=O)NCC(=O)N[C@H](C(=O)N1CCC[C@H]1C(N)=O)[C@@H](C)O)[C@@H](C)O)[C@@H](C)O)[C@@H](C)O` [salmon calcitonin], which “potency relative to human calcitonin” value (blood calcium levels) is on record?
Its value is 40-50 times.

For `C[C@]12CC[C@H]3[C@@H](CCC4=CC(=O)CC[C@@]43C)[C@@H]1CC[C@@H]2O` [testosterone], which “time to return to baseline levels after removal of the patch” value [3] is on record?
Its value is 3 to 4 h.

For Calcitonin, which “drop in serum calcium levels” value (serum calcium [4]) is on record?
The value was 1 to 2 mg/dL.

Which “increase in tryptophan hydroxylase (TPH)” value [5] does the source give for estrogen here?
The value was “nine-fold”.

Reference: patent US8197858B2, “Bone microenvironment modulated seizure treatments” (priority 2009, dated 2012)
